Results on 39 compounds are retold here after patent US9896418B2, “Aryl ethers and uses thereof” (Peloton Therapeutics, Inc., priority 2013, dated 2018).

For this assay, the system named is HIF-2α HIS TAG-PASB Domain. In words: HIF-2α Scintillation Proximity Assay (SPA). It counts as binding. On the procedure:
The percent inhibition was determined and IC50 values were calculated using the Dotmatics system based on the following equation: % inhibition=[(high control−sample)/(high control−low control)]×100.
On the technique in general: SPA uses beads or plates that emit light when radiolabelled molecules are held near them.

As for `N=S(=O)(c1ccc(Oc2cc(F)cc(Cl)c2)c(Br)c1Cl)C(F)(F)F` (stereo not drawn) [Compound 75, (3-bromo-2-chloro-4-(3-chloro-5-fluorophenoxy)phenyl)(imino)(trifluoromethyl)-λ^6-sulfanone], half-maximal inhibition (IC50) was put at 240 nM. The result for `N#Cc1c(S(=O)(=O)C(F)F)ccc(Oc2cc(F)cc(Cl)c2)c1Br` [Compound 76, 2-bromo-3-(3-chloro-5-fluorophenoxy)-6-((difluoromethyl)sulfonyl)benzonitrile] reads 880 nM; that for `N#Cc1cc(F)cc(Oc2ccc(S(=O)(=O)C(F)F)c(C#N)c2Br)c1` [Compound 77, 2-Bromo-3-(3-cyano-5-fluorophenoxy)-6-((difluoromethyl)sulfonyl)benzonitrile], 1900 nM.

Regarding `CC(=O)c1c(S(=O)(=O)C(F)(F)F)ccc(Oc2cc(F)cc(C#N)c2)c1C#N` [Compound 79, 2-Acetyl-6-(3-cyano-5-fluorophenoxy)-3-((trifluoromethyl)sulfonyl)benzonitrile], the IC50 (in general, the concentration that inhibits the measured activity by half) amounted to 1300 nM. `N#Cc1cc(F)cc(Oc2ccc(S(=O)(=O)C(F)F)c(CO)c2Br)c1` [Compound 80, 3-(2-Bromo-4-((difluoromethyl)sulfonyl)-3-(hydroxymethyl)phenoxy)-5-fluorobenzonitrile] showed a half-maximal inhibitory concentration (IC50) of 22 nM.

The compound `N#Cc1cccc(Oc2ccc(S(=O)(=O)C(F)F)c(CO)c2Br)c1` [Compound 81, 3-(2-Bromo-4-((difluoromethyl)sulfonyl)-3-(hydroxymethyl)phenoxy)benzonitrile] yielded a half-maximal inhibitory concentration (IC50) of 290 nM. Against the preceding compound, the IC50 is about 13-fold higher.

For the compound `COC(=O)c1c([S+]([O-])C(F)F)ccc(Oc2cc(F)cc(Cl)c2)c1Br` (stereo not drawn) [Compound 82, Methyl 2-bromo-3-(3-chloro-5-fluorophenoxy)-6-((difluoromethyl)sulfinyl)benzoate], half-maximal inhibition (IC50) required 15000 nM. `CC(C)(C)OC(=O)NCc1c(S(=O)(=O)C(F)F)ccc(Oc2cc(F)cc(Cl)c2)c1Br` [Compound 83, tert-butyl (2-bromo-3-(3-chloro-5-fluorophenoxy)-6-((difluoromethyl)sulfonyl)benzyl)carbamate] displayed an IC50 of 3200 nM. Take `NCc1c(S(=O)(=O)C(F)F)ccc(Oc2cc(F)cc(Cl)c2)c1Br` [Compound 85, (2-Bromo-3-(3-chloro-5-fluorophenoxy)-6-((difluoromethyl)sulfonyl)phenyl)methanamine]: the IC50 was determined as 2900 nM. The result for `CC(=O)NCc1c(S(=O)(=O)C(F)F)ccc(Oc2cc(F)cc(Cl)c2)c1Br` [Compound 86, N-(2-Bromo-3-(3-chloro-5-fluorophenoxy)-6-((difluoromethyl)sulfonyl)benzyl)acetamide] reads 71000 nM. In turn, `O=S(=O)(c1ccc(Oc2cccc(C(F)(F)F)c2)c(Br)c1CO)C(F)F` [Compound 89, (2-Bromo-6-((difluoromethyl)sulfonyl)-3-(3-(trifluoromethyl)phenoxy)phenyl)methanol] yielded an IC50 of 1400 nM. `CS(=O)(=O)c1ccc(Oc2cc(F)cc(Cl)c2)c2c1C(O)CC2` (stereo not drawn) [Compound 90, 4-(3-Chloro-5-fluorophenoxy)-7-(methylsulfonyl)-2,3-dihydro-1H-inden-1-ol] gave an IC50 of 230 nM. As to `CCS(=O)(=O)c1ccc(Oc2cc(F)cc(Cl)c2)c2c1C(O)CC2` (stereo not drawn) [Compound 91, 4-(3-Chloro-5-fluorophenoxy)-7-(ethylsulfonyl)-2,3-dihydro-1H-inden-1-ol], half-maximal inhibition (IC50) was put at 280 nM. `CS(=O)(=O)c1ccc(Oc2cc(F)cc(Cl)c2)c(C(F)F)c1C#N` [Compound 92, 3-(3-Chloro-5-fluorophenoxy)-2-(difluoromethyl)-6-(methylsulfonyl)benzonitrile] displayed an IC50 of 37 nM. In the case of `CS(=O)(=O)c1ccc(Oc2cc(F)cc(F)c2)c(C(F)F)c1C#N` [Compound 93, 2-(Difluoromethyl)-3-(3,5-difluorophenoxy)-6-(methylsulfonyl)benzonitrile], the IC50 was determined as 170 nM. On to `CS(=O)(=O)c1ccc(Oc2cc(F)cc(C#N)c2)c(C(F)F)c1C#N` [Compound 94, 3-(3-Cyano-5-fluorophenoxy)-2-(difluoromethyl)-6-(methylsulfonyl)benzonitrile], for which the IC50 was 130 nM. The compound `CS(=O)(=O)c1ccc(Oc2cc(F)cc(C#N)c2)c2c1C(O)CCC2` (stereo not drawn) [Compound 95, 3-Fluoro-5-((5-hydroxy-4-(methylsulfonyl)-5,6,7,8-tetrahydronaphthalen-1-yl)oxy)benzonitrile] showed an IC50 of 3600 nM. Against the preceding compound, the IC50 is about 28-fold higher. The result for `N#Cc1c(I)ccc(Oc2cc(F)cc(Cl)c2)c1Br` [Compound 96, 2-Bromo-3-(3-chloro-5-fluorophenoxy)-6-iodobenzonitrile] reads 3100 nM; that for `Fc1cc(Cl)cc(Oc2ccc(C(F)(F)F)c(Cl)c2Br)c1` [Compound 97, 2-Bromo-3-chloro-1-(3-chloro-5-fluorophenoxy)-4-(trifluoromethyl)benzene], 2200 nM; that for `N#Cc1c(S(=O)(=O)C(F)(F)F)ccc(Oc2cc(F)cc(Cl)c2)c1Br` [Compound 98, 2-Bromo-3-(3-chloro-5-fluorophenoxy)-6-((trifluoromethyl)sulfonyl)benzonitrile], 15 nM. In turn, `N#Cc1cc(F)cc(Oc2ccc(S(=O)(=O)C(F)(F)F)c(C#N)c2Br)c1` [Compound 100, 2-Bromo-3-(3-cyano-5-fluorophenoxy)-6-((trifluoromethyl)sulfonyl)benzonitrile] returned an IC50 of 94 nM. Under `O=Cc1c(S(=O)(=O)C(F)(F)F)ccc(Oc2cc(F)cc(Cl)c2)c1Br` [Compound 101, 2-Bromo-3-(3-chloro-5-fluorophenoxy)-6-((trifluoromethyl)sulfonyl)benzaldehyde] stands 26 nM; under `O=S(=O)(c1ccc(Oc2cc(F)cc(Cl)c2)c(Br)c1CO)C(F)(F)F` [Compound 102, (2-Bromo-3-(3-chloro-5-fluorophenoxy)-6-((trifluoromethyl)sulfonyl)phenyl)methanol], 120 nM; under `CC(O)c1c(S(=O)(=O)C(F)(F)F)ccc(Oc2cc(F)cc(Cl)c2)c1Br` (stereo not drawn) [Compound 103, 1-(2-Bromo-3-(3-chloro-5-fluorophenoxy)-6-((trifluoromethyl)sulfonyl)phenyl)ethan-1-ol], 300 nM.

For `CC(=O)c1c(S(=O)(=O)C(F)(F)F)ccc(Oc2cc(F)cc(Cl)c2)c1Br` [Compound 104, 1-(2-Bromo-3-(3-chloro-5-fluorophenoxy)-6-((trifluoromethyl)sulfonyl)phenyl)ethan-1-one], the IC50 came to 270 nM. This IC50 and that of the compound before are within 1.5-fold of each other. Under `N#Cc1c(Oc2cc(F)cc(Cl)c2)ccc(S(=O)(=O)C(F)(F)F)c1C(=O)O` [Compound 105, 3-(3-Chloro-5-fluorophenoxy)-2-cyano-6-((trifluoromethyl)sulfonyl)benzoic acid] stands 12000 nM. `CC(=NO)c1c(S(=O)(=O)C(F)(F)F)ccc(Oc2cc(F)cc(Cl)c2)c1Br` [Compound 106, 1-(2-Bromo-3-(3-chloro-5-fluorophenoxy)-6-((trifluoromethyl)sulfonyl)phenyl)ethan-1-one oxime] gave an IC50 of 1000 nM.

`O=S(=O)(c1ccc(Oc2cc(F)cc(Cl)c2)c(Br)c1C=NO)C(F)(F)F` [Compound 107, 2-Bromo-3-(3-chloro-5-fluorophenoxy)-6-((trifluoromethyl)sulfonyl)benzaldehyde oxime] yielded an IC50 of 160 nM. This IC50 lies about 6.2-fold lower than the previous one.

In turn, `O=S(=O)(c1ccc(Oc2cc(F)cc(Cl)c2)c(Br)c1CNCCO)C(F)(F)F` [Compound 108, 2-((2-Bromo-3-(3-chloro-5-fluorophenoxy)-6-((trifluoromethyl)sulfonyl)benzyl)amino)ethan-1-ol] registered an IC50 of 5800 nM. This IC50 is about 36-fold higher than that of the compound before. `CNCc1c(S(=O)(=O)C(F)(F)F)ccc(Oc2cc(F)cc(Cl)c2)c1Br` [Compound 109, 1-(2-Bromo-3-(3-chloro-5-fluorophenoxy)-6-((trifluoromethyl)sulfonyl)phenyl)-N-methylmethanamine] yielded an IC50 of 2100 nM. Against the preceding compound, the IC50 is about 2.8-fold lower. Under `O=S(=O)(c1ccc(Oc2cc(F)cc(Cl)c2)c(Br)c1CNCc1ccccc1)C(F)(F)F` [Compound 110, N-Benzyl-1-(2-bromo-3-(3-chloro-5-fluorophenoxy)-6-((trifluoromethyl)sulfonyl)phenyl)methanamine] stands 1600 nM. With `N#Cc1c(S(=O)(=O)C(F)(F)F)ccc(Oc2cc(F)cc(Cl)c2)c1Cl` [Compound 111, 2-Chloro-3-(3-chloro-5-fluorophenoxy)-6-((trifluoromethyl)sulfonyl)benzonitrile], half-maximal inhibition (IC50) was put at 15 nM. Under `O=Cc1c(S(=O)(=O)C(F)(F)F)ccc(Oc2cc(F)cc(Cl)c2)c1Cl` [Compound 112, 2-Chloro-3-(3-chloro-5-fluorophenoxy)-6-((trifluoromethyl)sulfonyl)benzaldehyde] stands 40 nM; under `CNCc1c(S(=O)(=O)C(F)(F)F)ccc(Oc2cc(F)cc(Cl)c2)c1Cl` [Compound 113, 1-(2-Chloro-3-(3-chloro-5-fluorophenoxy)-6-((trifluoromethyl)sulfonyl)phenyl)-N-methylmethanamine], 2300 nM. Under `O=S(=O)(c1ccc(Oc2cc(F)cc(Cl)c2)c(Cl)c1CNCCF)C(F)(F)F` [Compound 114, N-(2-Chloro-3-(3-chloro-5-fluorophenoxy)-6-((trifluoromethyl)sulfonyl)benzyl)-2-fluoroethan-1-amine] stands 1100 nM. Under `N#Cc1cccc(Oc2ccc(S(=O)(=O)C(F)(F)F)cc2Br)c1` [Compound 117, 3-(2-Bromo-4-((trifluoromethyl)sulfonyl)phenoxy)benzonitrile] stands 210 nM. With `N#Cc1cc(F)cc(Oc2ccc(S(=O)(=O)C(F)(F)F)cc2Br)c1` [Compound 118, 3-(2-Bromo-4-((trifluoromethyl)sulfonyl)phenoxy)-5-fluorobenzonitrile], the IC50 turned out to be 160 nM. The result for `N#Cc1cc(F)cc(Oc2ccc(S(=O)(=O)C(F)(F)F)cc2C#N)c1` [Compound 120, 2-(3-Cyano-5-fluorophenoxy)-5-((trifluoromethyl)sulfonyl)benzonitrile] reads 340 nM. In turn, `COC(=O)c1cc(S(=O)(=O)C(F)(F)F)ccc1Oc1cc(F)cc(Cl)c1` [Compound 121, Methyl 2-(3-chloro-5-fluorophenoxy)-5-((trifluoromethyl)sulfonyl)benzoate] showed an IC50 of 16000 nM.
